Laboratory results from patent publication US20200038513A1, “MODULATORS OF FAK PROTEOLYSIS AND ASSOCIATED METHODS OF USE” (ARVINAS OPERATIONS, INC., priority 2018, published 2020).

Test system: MDA-MB-231 cells
Experiment: RPPA (reverse phase protein array)
Assay type: cell-based, human
Description: RPPA analysis was performed by MD Anderson Cancer Center RPPA core facility.
Examination of the Molecular Signaling Events) and/or Downstream Pathways Responsible for the Migration and Invasion Effects Observed by Exemplary Compound Treatment. To pinpoint these observations to a molecular signaling event or specific downstream pathway, reverse phase protein array (RPPA) analysis was performed (Table 4).

Structure (SMILES): Cc1ncsc1-c1ccc(CNC(=O)[C@@H]2C[C@@H](O)CN2C(=O)[C@@H](NC(=O)CCOCCOc2ccc(Nc3ncc(C(F)(F)F)c(NCc4cccc(N(C)S(C)(=O)=O)c4)n3)cc2)C(C)(C)C)cc1 [Compound 102, (2S,4R)-1-((S)-3,3-dimethyl-2-(3-(2-(4-((4-((3-(N-methylmethylsulfonamido)benzyl)amino)-5-(trifluoromethyl)pyrimidin-2-yl)amino)phenoxy)ethoxy)propanamido)butanoyl)-4-hydroxy-N-(4-(4-methylthiazol-5-yl)benzyl)pyrrolidine-2-carboxamide]
- rel. Protein level, Mnk1 (500nM): 97.2%
- rel. Protein level, Myosin-11 (500nM): 101.0%
- rel. Protein level, Myosin-IIa_pS1943 (500nM): 113.7%
- rel. Protein level, Myt1 (500nM): 93.2%
- rel. Protein level, N-Cadherin (500nM): 104.0%
- rel. Protein level, N-Ras (500nM): 98.6%
- rel. Protein level, NAPSIN-A (500nM): 99.4%
- rel. Protein level, NDRG1_pT346 (500nM): 118.1%
- rel. Protein level, NDUFB4 (500nM): 100.5%
- rel. Protein level, NF-kB-p65_pS536 (500nM): 108.3%
- rel. Protein level, Notch1 (500nM): 105.8%
- rel. Protein level, Notch3 (500nM): 112.1%
- rel. Protein level, Oct-4 (500nM): 102.3%
- rel. Protein level, P-Cadherin (500nM): 108.3%
- rel. Protein level, PAI-1 (500nM): 106.1%
- rel. Protein level, PAICS (500nM): 98.1%
- rel. Protein level, PAK1 (500nM): 106.0%
- rel. Protein level, PAK4 (500nM): 95.1%
- rel. Protein level, PAR (500nM): 158.2%
- rel. Protein level, PARP (500nM): 104.5%
- rel. Protein level, PCNA (500nM): 97.5%
- rel. Protein level, PD-1 (500nM): 98.8%
- rel. Protein level, PD-L1 (500nM): 95.8%
- rel. Protein level, PDGFR-b (500nM): 124.5%
- rel. Protein level, PDHK1 (500nM): 102.2%
- rel. Protein level, PDK1 (500nM): 99.6%
- rel. Protein level, PDK1_pS241 (500nM): 103.2%
- rel. Protein level, PEA-15 (500nM): 97.9%
- rel. Protein level, PEA-15_pS116 (500nM): 98.0%
- rel. Protein level, PI3K-p85 (500nM): 100.1%
- rel. Protein level, PI3K-p110-a (500nM): 107.4%
- rel. Protein level, PI3K-p110-b (500nM): 94.8%
- rel. Protein level, PKA-a (500nM): 105.1%
- rel. Protein level, PKC-b-II_pS660 (500nM): 93.7%
- rel. Protein level, PKC-delta_pS664 (500nM): 98.8%
- rel. Protein level, PKCa (500nM): 113.3%
- rel. Protein level, PKM2 (500nM): 105.8%
- rel. Protein level, PLC-gamma2_pY759 (500nM): 97.9%
- rel. Protein level, PLK1 (500nM): 95.0%
- rel. Protein level, PMS2 (500nM): 96.4%
- rel. Protein level, PR (500nM): 96.8%
- rel. Protein level, PRAS40 (500nM): 104.0%
- rel. Protein level, PRAS40_pT246 (500nM): 92.3%
- rel. Protein level, PREX1 (500nM): 102.5%
- rel. Protein level, PTEN (500nM): 124.6%
- rel. Protein level, Paxillin (500nM): 91.8%
- rel. Protein level, Pdcd4 (500nM): 120.2%
- rel. Protein level, Porin (500nM): 97.8%
- rel. Protein level, RBM15 (500nM): 105.1%
- rel. Protein level, RIP (500nM): 105.6%
- rel. Protein level, RPA32 (500nM): 98.4%
- rel. Protein level, RPA32_pS4-S8 (500nM): 102.8%
- rel. Protein level, RSK (500nM): 99.0%
- rel. Protein level, Rab11 (500nM): 102.8%
- rel. Protein level, Rab25 (500nM): 100.2%
- rel. Protein level, Rad50 (500nM): 103.9%
- rel. Protein level, Rad51 (500nM): 89.6%
- rel. Protein level, Raptor (500nM): 103.3%
- rel. Protein level, Rb (500nM): 106.3%
- rel. Protein level, Rb_pS807_S811 (500nM): 92.3%
- rel. Protein level, Rheb (500nM): 103.3%
- rel. Protein level, Rictor (500nM): 126.9%
- rel. Protein level, Rictor_pT1135 (500nM): 92.3%
- rel. Protein level, S6 (500nM): 112.2%
- rel. Protein level, S6_pS235_S236 (500nM): 57.3%
- rel. Protein level, S6_pS240_S244 (500nM): 51.9%
- rel. Protein level, b-Actin (500nM): 97.4%
- rel. Protein level, b-Catenin (500nM): 108.4%
- rel. Protein level, b-Catenin_pT41_S45 (500nM): 96.8%
- rel. Protein level, c-Abl (500nM): 95.2%
- rel. Protein level, c-IAP2 (500nM): 100.4%
- rel. Protein level, c-Jun_pS73 (500nM): 92.3%
- rel. Protein level, c-Kit (500nM): 100.1%
- rel. Protein level, c-Met_pY1234_Y1235 (500nM): 101.1%
- rel. Protein level, c-Myc (500nM): 89.2%
- rel. Protein level, cdc2_pY15 (500nM): 92.3%
- rel. Protein level, cdc25C (500nM): 99.5%
- rel. Protein level, eEF2 (500nM): 98.9%
- rel. Protein level, eEF2K (500nM): 110.8%
- rel. Protein level, eIF4E (500nM): 102.9%
- rel. Protein level, eIF4E_pS209 (500nM): 95.8%
- rel. Protein level, eIF4G (500nM): 96.7%
- rel. Protein level, mTOR (500nM): 98.9%
- rel. Protein level, mTOR_pS2448 (500nM): 92.3%
- rel. Protein level, p21 (500nM): 98.7%
- rel. Protein level, p27-Kip-1 (500nM): 101.1%
- rel. Protein level, p27_pT198 (500nM): 100.1%
- rel. Protein level, p38-MAPK (500nM): 93.4%
- rel. Protein level, p38_pT180_Y182 (500nM): 93.4%
- rel. Protein level, p44-42-MAPK (500nM): 112.7%
- rel. Protein level, p53 (500nM): 113.6%
- rel. Protein level, p70-S6K1 (500nM): 109.6%
- rel. Protein level, p70-S6K_pT389 (500nM): 92.3%
- rel. Protein level, p90RSK_pT573 (500nM): 98.5%
- Fak level by RPPA (in words) (10% FBS, 8 hours): Fak degradation
- p-Fak level by RPPA (in words) (10% FBS, 8 hours): reduced levels of p-Fak
- rel. Protein level [%], SCD (antibody SCD, 500nM, n = 2): 94.3%
- rel. Protein level [%], SDHA (antibody SDHA, 500nM, n = 2): 102.0%
- rel. Protein level [%], SF2 (antibody SF2, 500nM, n = 2): 105.3%
- rel. Protein level [%], SHP-2_pY542 (antibody SHP-2_pY542, 500nM, n = 2): 96.4%
- rel. Protein level [%], SLC1A5 (antibody SLC1A5, 500nM, n = 2): 100.8%
- rel. Protein level [%], SOD1- (antibody SOD1-, 500nM, n = 2): 101.4%
- rel. Protein level [%], SOD2 (antibody SOD2, 500nM, n = 2): 103.5%
- rel. Protein level [%], STING (antibody STING, 500nM, n = 2): 136.3%
- rel. Protein level [%], Shc_pY317 (antibody Shc_pY317, 500nM, n = 2): 100.3%
- rel. Protein level [%], Slfn11 (antibody Slfn11, 500nM, n = 2): 96.5%
- rel. Protein level [%], Smac (antibody Smac, 500nM, n = 2): 100.9%
- rel. Protein level [%], Smad1 (antibody Smad1, 500nM, n = 2): 96.6%
- rel. Protein level [%], Smad3 (antibody Smad3, 500nM, n = 2): 110.8%
- rel. Protein level [%], Smad4 (antibody Smad4, 500nM, n = 2): 100.2%
- rel. Protein level [%], Snail (antibody Snail, 500nM, n = 2): 107.4%
- rel. Protein level [%], Sox2 (antibody Sox2, 500nM, n = 2): 105.3%
- rel. Protein level [%], Src (antibody Src, 500nM, n = 2): 103.5%
- rel. Protein level [%], Src_pY419 (antibody Src_pY419, 500nM, n = 2): 98.9%
- rel. Protein level [%], Src_pY527 (antibody Src_pY527, 500nM, n = 2): 91.0%
- rel. Protein level [%], Stat3 (antibody Stat3, 500nM, n = 2): 99.2%
- rel. Protein level [%], Stat3_pY705 (antibody Stat3_pY705, 500nM, n = 2): 119.9%
- rel. Protein level [%], Stat5a (antibody Stat5a, 500nM, n = 2): 111.4%
- rel. Protein level [%], Stathmin-1 (antibody Stathmin-1, 500nM, n = 2): 101.8%
- rel. Protein level [%], Syk (antibody Syk, 500nM, n = 2): 92.8%
- rel. Protein level [%], TAZ (antibody TAZ, 500nM, n = 2): 89.0%
- rel. Protein level [%], TFAM (antibody TFAM, 500nM, n = 2): 107.8%
- rel. Protein level [%], TFRC (antibody TFRC, 500nM, n = 2): 99.8%
- rel. Protein level [%], TIGAR (antibody TIGAR, 500nM, n = 2): 96.8%
- rel. Protein level [%], TRIM25 (antibody TRIM25, 500nM, n = 2): 108.0%
- rel. Protein level [%], TSC1 (antibody TSC1, 500nM, n = 2): 106.5%
- rel. Protein level [%], TTF1 (antibody TTF1, 500nM, n = 2): 102.7%
- rel. Protein level [%], TUFM (antibody TUFM, 500nM, n = 2): 96.9%
- rel. Protein level [%], TWIST (antibody TWIST, 500nM, n = 2): 96.9%
- rel. Protein level [%], Tau (antibody Tau, 500nM, n = 2): 101.7%
- rel. Protein level [%], Transglutaminase (antibody Transglutaminase, 500nM, n = 2): 107.8%
- rel. Protein level [%], Tuberin (antibody Tuberin, 500nM, n = 2): 106.3%
- rel. Protein level [%], Tuberin_pT1462 (antibody Tuberin_pT1462, 500nM, n = 2): 93.5%
- rel. Protein level [%], Tyro3 (antibody Tyro3, 500nM, n = 2): 98.8%
- rel. Protein level [%], U-Histone-H2B (antibody U-Histone-H2B, 500nM, n = 2): 108.7%
- rel. Protein level [%], UBAC1 (antibody UBAC1, 500nM, n = 2): 100.4%
- rel. Protein level [%], UGT1A (antibody UGT1A, 500nM, n = 2): 94.3%
- rel. Protein level [%], ULK1_pS757 (antibody ULK1_pS757, 500nM, n = 2): 100.9%
- rel. Protein level [%], VASP (antibody VASP, 500nM, n = 2): 108.6%
- rel. Protein level [%], VEGFR-2 (antibody VEGFR-2, 500nM, n = 2): 93.7%
- rel. Protein level [%], VHL-EPPK1 (antibody VHL-EPPK1, 500nM, n = 2): 90.7%
- rel. Protein level [%], WIPI1 (antibody WIPI1, 500nM, n = 2): 112.5%
- rel. Protein level [%], WIPI2 (antibody WIPI2, 500nM, n = 2): 108.8%
- rel. Protein level [%], Wee1 (antibody Wee1, 500nM, n = 2): 92.3%
- rel. Protein level [%], Wee1_pS642 (antibody Wee1_pS642, 500nM, n = 2): 94.7%
- rel. Protein level [%], XBP-1 (antibody XBP-1, 500nM, n = 2): 92.8%
- rel. Protein level [%], XPA (antibody XPA, 500nM, n = 2): 96.4%
- rel. Protein level [%], XPF (antibody XPF, 500nM, n = 2): 109.0%
- rel. Protein level [%], XRCC1 (antibody XRCC1, 500nM, n = 2): 104.0%
- rel. Protein level [%], YAP (antibody YAP, 500nM, n = 2): 95.4%
- rel. Protein level [%], YAP_pS127 (antibody YAP_pS127, 500nM, n = 2): 106.2%
- rel. Protein level [%], YB1_pS102 (antibody YB1_pS102, 500nM, n = 2): 92.3%
- rel. Protein level [%], ZAP-70 (antibody ZAP-70, 500nM, n = 2): 92.5%
